This passage reports IC50 results from patent publication US8399459B2, “1,4 oxazines as BACE1 and/or BACE2 inhibitors” (Hoffmann-La Roche Inc., priority 2011, dated 2013).

The target of this experiment is T1, BACE2 (Rattus norvegicus, UniProt Q6IE75).
T1 construct: endogenous cellular BACE2 in the Ins1e rat cell line; endogenous in cells; host or cells: INS-TMEM27 (INS1e-derived rat cell line with doxycycline-inducible full-length human TMEM27)
T1 sequence (Q6IE75 63-514): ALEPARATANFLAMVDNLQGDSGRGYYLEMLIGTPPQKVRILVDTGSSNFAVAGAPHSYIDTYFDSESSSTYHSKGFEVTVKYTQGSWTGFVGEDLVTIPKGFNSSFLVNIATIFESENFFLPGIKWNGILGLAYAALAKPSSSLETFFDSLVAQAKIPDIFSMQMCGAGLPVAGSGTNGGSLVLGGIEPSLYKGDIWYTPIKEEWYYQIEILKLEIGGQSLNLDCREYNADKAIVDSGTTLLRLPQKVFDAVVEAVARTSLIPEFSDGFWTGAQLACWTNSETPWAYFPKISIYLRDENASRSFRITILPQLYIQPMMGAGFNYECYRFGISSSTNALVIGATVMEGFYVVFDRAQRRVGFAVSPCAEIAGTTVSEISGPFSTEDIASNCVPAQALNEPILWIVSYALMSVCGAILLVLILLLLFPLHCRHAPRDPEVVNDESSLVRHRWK
Nature of the experiment: Assay for BACE inhibition by measuring cellular TMEM27 cleavage (INS-TMEM27 cells, ELISA). The format is cell-based. As to conditions: INS-TMEM27 (INS1e-derived) cells; shed TMEM27 by ELISA. The source says: Assay for BACE Inhibition by Measuring Cellular TMEM27 Cleavage:
The assay uses the principle of inhibition of human TMEM27 cleavage by endogenous cellular BACE2 in the Ins1e rat cell line and shedding from the cell surface into the culture medium, followed by detection in an ELISA assay. Inhibition of BACE2 prevents the cleavage and shedding in a dose-dependent manner.
The stable cell line “INS-TMEM27” represents an INS1e-derived cell line with inducible expression (using the TetOn system) of full-length hTMEM27 in a doxycycline-dependent manner. The cells are cultured throughout the experiment in RPMI1640+Glutamax (Invitrogen) Penicillin/Streptomycin, 10% Fetal bovine serum, […], […], 100 micrograms/ml G418 and 100 microgram/ml hygromycin and are grown inadherent culture at 37° C. in a standard CO2 cell culture incubator.
INS-TMEM27 cells are seeded in 96-well plates. After 2 days in culture, BACE2 inhibitor is added in a range of concentrations as required by the assay and after a further two hours, doxycycline is added to a final concentration of 500 ng/ml. The cells are incubated for a further 46 hours and the supernatant harvested for detection of shed TMEM27.
An ELISA assay (using a pair of mouse anti-human-TMEM27 antibodies, raised against the extracellular domain of TMEM27) is used for detection of TMEM27 in the culture medium. An EC50 for BACE2 inhibition is calculated using the ELISA readout for each inhibitor concentration with standard curve-fitting software such as XLFit for the Excel spreadsheet program.
(In general: In an ELISA, binding on a coated surface is turned into a signal by an enzyme label.)

Take `CC1(c2cccc(-c3cc(Cl)cc(Cl)c3)c2)COCC(N)=N1` (stereo not shown) [Example 32, 5-(3′,5′-Dichloro-biphenyl-3-yl)-5-methyl-5,6-dihydro-2H-[1,4]oxazin-3-ylamine]: it took 470 nM to reach half-maximal inhibition (IC50).

What is called IC50 is the concentration at which inhibition is half-maximal.
